# According to patent US11254686B1 (Corvus Pharmaceuticals, Inc., priority 2017, dated 2022):
# Where two headings read alike, the source gives them in different places.
# Assays:
# [1] = target: T1, adenosine A1 receptor (Homo sapiens (Human), UniProt P30542); test: Adenosine receptor activity assay (Table 1), A1 cAMP; assay type: cell-based
# [2] = target: T2, adenosine A3 receptor (Homo sapiens (Human), UniProt P0DMS8); test: Adenosine receptor activity assay (Table 1), A3 cAMP; assay type: cell-based
# T2 sequence (P0DMS8 whole entry): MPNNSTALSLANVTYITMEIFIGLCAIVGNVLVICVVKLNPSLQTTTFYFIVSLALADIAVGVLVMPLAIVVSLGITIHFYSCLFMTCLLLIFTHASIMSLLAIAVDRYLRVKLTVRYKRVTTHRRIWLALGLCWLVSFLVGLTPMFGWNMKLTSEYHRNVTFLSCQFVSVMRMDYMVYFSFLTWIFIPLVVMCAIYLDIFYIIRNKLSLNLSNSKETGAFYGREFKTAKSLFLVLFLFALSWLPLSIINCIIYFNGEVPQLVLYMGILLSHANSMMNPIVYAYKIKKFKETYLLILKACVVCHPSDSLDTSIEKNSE
# [3] = target: adenosine A2B receptor (Homo sapiens (Human), UniProt P29275); test: Adenosine receptor activity assay (Table 1), A2B activity; assay type: biochemical; conditions: for IC50: read-out: Ave A2B cAMP IC50
# adenosine A2B receptor, sequence (P29275 whole entry): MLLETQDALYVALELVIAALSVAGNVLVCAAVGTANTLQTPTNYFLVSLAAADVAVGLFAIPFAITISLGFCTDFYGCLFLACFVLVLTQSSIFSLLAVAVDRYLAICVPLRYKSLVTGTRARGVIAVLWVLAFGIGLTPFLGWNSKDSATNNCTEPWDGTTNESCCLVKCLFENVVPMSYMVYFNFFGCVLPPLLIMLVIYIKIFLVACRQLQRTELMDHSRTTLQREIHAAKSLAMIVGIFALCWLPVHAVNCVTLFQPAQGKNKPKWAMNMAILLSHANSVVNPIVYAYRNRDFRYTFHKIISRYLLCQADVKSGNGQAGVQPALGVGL
# [4] = target: adenosine A2A receptor (Homo sapiens (Human), UniProt P29274); test: Adenosine receptor activity assay (Table 1), A2A activity; assay type: biochemical; conditions: read-out: Ave A2A cAMP IC50
# adenosine A2A receptor, sequence (P29274 whole entry): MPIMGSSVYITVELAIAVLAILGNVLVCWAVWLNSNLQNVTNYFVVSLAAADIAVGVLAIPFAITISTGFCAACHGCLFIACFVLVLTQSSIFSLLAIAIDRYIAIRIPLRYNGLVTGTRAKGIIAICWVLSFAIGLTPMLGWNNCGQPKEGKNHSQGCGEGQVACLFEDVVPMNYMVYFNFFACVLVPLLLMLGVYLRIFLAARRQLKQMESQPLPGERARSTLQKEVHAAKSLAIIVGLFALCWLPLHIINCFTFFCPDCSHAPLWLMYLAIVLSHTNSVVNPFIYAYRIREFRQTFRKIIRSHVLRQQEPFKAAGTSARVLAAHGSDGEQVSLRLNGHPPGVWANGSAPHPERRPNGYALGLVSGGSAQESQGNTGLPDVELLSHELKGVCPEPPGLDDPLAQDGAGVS
# [5] = target: T2, adenosine A3 receptor; test: Adenosine receptor activity assay (Table 1), A3 cAMP; assay type: biochemical
# Method: (§1) Table 1. Compounds (e.g., Adenosine Receptor modulators) and activity assay results. The legend is as follows: A=<10 nM; B=10-50 nM; C=50-100 nM; D=100-500; and E=>500 nM. The ratio corresponds to the A2A activity to the A2B activity; or A2A/A2B.
# [6] = target: T1, adenosine A1 receptor; test: Adenosine receptor activity assay (Table 1), A1 cAMP; assay type: biochemical
# Method: as §1
# [7] = A2A activity to A2B activity (A2A/A2B)
# [8] = A2A activity to the A2B activity, A2A/A2B
# T1 sequence (P30542 whole entry): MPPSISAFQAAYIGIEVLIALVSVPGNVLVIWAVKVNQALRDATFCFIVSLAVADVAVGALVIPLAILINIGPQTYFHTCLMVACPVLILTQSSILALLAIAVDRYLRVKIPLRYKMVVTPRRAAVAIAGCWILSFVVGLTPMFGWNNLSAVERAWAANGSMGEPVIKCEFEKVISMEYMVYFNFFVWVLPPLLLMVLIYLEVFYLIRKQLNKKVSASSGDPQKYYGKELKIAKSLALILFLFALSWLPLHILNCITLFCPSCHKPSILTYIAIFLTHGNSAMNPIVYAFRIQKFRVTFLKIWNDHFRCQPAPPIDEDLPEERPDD
Molecule,IC50 [1] [nM],IC50 [2] [nM],"Ratio [3, 7]",IC50 [3] [nM],IC50 [4] [nM],IC50 [5] [nM],IC50 [6] [nM],"Ratio [3, 8]"
"CO[C@@H]1CCN(C(=O)c2nc(N[C@@H](C)c3cncc(Cl)c3)nc3ccsc23)C1 [Example Z253, (2-(((S)-1-(5-Chloropyridin-3-yl)ethyl)amino)thieno[3,2-d]pyrimidin-4-yl)((R)-3-methoxypyrrolidin-1-yl)methanone]",> 500,> 500,10.26,10 to 50,100 to 500,,,
"Cc1cc2nc(N[C@@H](C)c3ccccn3)nc(C(=O)NC[C@H](C)O)c2s1 [Example Z287, N—((S)-2-Hydroxypropyl)-6-methyl-2-(((S)-1-(pyridin-2-yl)ethyl)amino)thieno[3,2-d]pyrimidine-4-carboxamide]",> 500,50 to 100,23.71,10 to 50,100 to 500,,,
"C[C@H](Nc1nc(C(=O)NCC(C)(C)O)c2sccc2n1)c1cncc(F)c1 [Example Z238, (S)-2-((1-(5-Fluoropyridin-3-yl)ethyl)amino)-N-(2-hydroxy-2-methylpropyl)thieno[3,2-d]pyrimidine-4-carboxamide]",> 500,> 500,22.98,< 10,100 to 500,,,
"Cc1cc2nc(N[C@@H](C)c3cccnc3)nc(C(=O)N3CC(O)C3)c2s1 [Example Z299, (S)-(3-Hydroxyazetidin-1-yl)(6-methyl-2-((1-(pyridin-3-yl)ethyl)amino)thieno[3,2-d]pyrimidin-4-yl)methanone]",> 500,> 500,39.68,< 10,100 to 500,,,
"COC1CN(C(=O)c2nc(N[C@@H](C)c3cncc(F)c3)nc3cc(C)sc23)C1 [Example Z268, (S)-(2-((1-(5-Fluoropyridin-3-yl)ethyl)amino)-6-methylthieno[3,2-d]pyrimidin-4-yl)(3-methoxyazetidin-1-yl)methanone]",50 to 100,50 to 100,57.63,< 10,50 to 100,,,
"C[C@H](Nc1nc(C(=O)N2CCC2)c2sccc2n1)c1cncc(Cl)c1 [Example Z232, (S)-Azetidin-1-yl(2-((1-(5-chloropyridin-3-yl)ethyl)amino)thieno[3,2-d]pyrimidin-4-yl)methanone]",> 500,> 500,60.88,< 10,100 to 500,,,
"C[C@H](O)CNC(=O)c1nc(N[C@@H](C)c2cncc(Cl)c2)nc2ccsc12 [Example Z292, 2-(((S)-1-(5-Chloropyridin-3-yl)ethyl)amino)-N—((S)-2-hydroxypropyl)thieno[3,2-d]pyrimidine-4-carboxamide]",50 to 100,50 to 100,60.59,10 to 50,> 500,,,
"C[C@H](Nc1nc(C(=O)N2CCC[C@H]2C)c2sccc2n1)c1cncc(F)c1 [Example Z272, (2-(((S)-1-(5-Fluoropyridin-3-yl)ethyl)amino)thieno[3,2-d]pyrimidin-4-yl)((R)-2-methylpyrrolidin-1-yl)methanone]",> 500,> 500,9.34,10 to 50,100 to 500,,,
"C[C@H](Nc1nc(C(=O)N2CCC[C@@H]2C)c2sccc2n1)c1cncc(F)c1 [Example Z271, (2-(((S)-1-(5-Fluoropyridin-3-yl)ethyl)amino)thieno[3,2-d]pyrimidin-4-yl)((S)-2-methylpyrrolidin-1-yl)methanone]",> 500,> 500,9.24,10 to 50,100 to 500,,,
"((R)-3-Methoxypyrrolidin-1-yl)(2-(((S)-1-(pyridin-2-yl)ethyl)amino)thieno[3,2-d]pyrimidin-4-yl)methanone [Example Z247]",> 500,> 500,2.54,10 to 50,50 to 100,,,
"Cc1cc2nc(N[C@@H](C)c3ccccn3)nc(C(=O)N3CCCC3)c2s1 [Example Z244, (S)-(6-Methyl-2-((1-(pyridin-2-yl)ethyl)amino)thieno[3,2-d]pyrimidin-4-yl)(pyrrolidin-1-yl)methanone]",50 to 100,50 to 100,18.24,< 10,10 to 50,,,
"C[C@H](Nc1nc(C(=O)N2CC[C@@H](F)C2)c2sccc2n1)c1cncc(F)c1 [Example Z234, (2-(((S)-1-(5-Fluoropyridin-3-yl)ethyl)amino)thieno[3,2-d]pyrimidin-4-yl)((R)-3-fluoropyrrolidin-1-yl)methanone]",> 500,> 500,58.04,< 10,100 to 500,,,
"CC(C)(C)OC(=O)N[C@@H]1CCN(C(=O)c2nc(NCc3cncc(F)c3)nc3ccsc23)C1 [Example Z239, tert-Butyl (R)-(1-(2-(((5-fluoropyridin-3-yl)methyl)amino)thieno[3,2-d]pyrimidine-4-carbonyl)pyrrolidin-3-yl)carbamate]",> 500,10 to 50,14.97,< 10,100 to 500,,,
"CNc1cc2nc(N[C@@H](C)c3ccccn3)nc(C(=O)NCCO)c2s1 [Example Z222, (S)—N-(2-Hydroxyethyl)-6-(methylamino)-2-((1-(pyridin-2-yl)ethyl)amino)thieno[3,2-d]pyrimidine-4-carboxamide]",> 500,> 500,44.93,10 to 50,> 500,,,

# Further lines, results first:
IC50 [1] [nM],IC50 [2] [nM],"Ratio [3, 7]",IC50 [3] [nM],IC50 [4] [nM],IC50 [5] [nM],IC50 [6] [nM],"Ratio [3, 8]",Molecule
> 500,> 500,10.57,< 10,50 to 100,,,,"C[C@H](Nc1nc(C(=O)NCC2CCOCC2)c2sccc2n1)c1cncc(F)c1 [Example Z339, (S)-2-((1-(5-Fluoropyridin-3-yl)ethyl)amino)-N-((tetrahydro-2H-pyran-4-yl)methyl)thieno[3,2-d]pyrimidine-4-carboxamide]"
> 500,> 500,448.66,< 10,> 500,,,,"C[C@H](Nc1nc(C(=O)N2CC[C@H](O)C2)c2sc(C(F)(F)F)cc2n1)c1cncc(F)c1 [Example Z346, (2-(((S)-1-(5-Fluoropyridin-3-yl)ethyl)amino)-6-(trifluoromethyl)thieno[3,2-d]pyrimidin-4-yl)((S)-3-hydroxypyrrolidin-1-yl)methanone]"
> 500,> 500,18.44,10 to 50,> 500,,,,"C[C@H](Nc1nc(C(=O)NCCc2ccncc2)c2sccc2n1)c1cncc(F)c1 [Example Z382, (S)-2-((1-(5-Fluoropyridin-3-yl)ethyl)amino)-N-(2-(pyridin-4-yl)ethyl)thieno[3,2-d]pyrimidine-4-carboxamide]"
> 500,50 to 100,3.82,10 to 50,50 to 100,,,,"CO[C@H]1CCN(C(=O)c2nc(N[C@@H](C)c3ccccn3)nc3cc(C)sc23)C1 [Example Z311, ((S)-3-Methoxypyrrolidin-1-yl)(6-methyl-2-(((S)-1-(pyridin-2-yl)ethyl)amino)thieno[3,2-d]pyrimidin-4-yl)methanone]"
50 to 100,50 to 100,32.01,< 10,100 to 500,,,,"Cc1cc2nc(N[C@@H](C)c3cncc(F)c3)nc(C(=O)NCC3CCOCC3)c2s1 [Example Z376, (S)-2-((1-(5-Fluoropyridin-3-yl)ethyl)amino)-6-methyl-N-((tetrahydro-2H-pyran-4-yl)methyl)thieno[3,2-d]pyrimidine-4-carboxamide]"
50 to 100,50 to 100,248.84,< 10,> 500,,,,"C[C@H](O)CNC(=O)c1nc(N[C@@H](C)c2cncc(F)c2)nc2cc(C(F)(F)F)sc12 [Example Z392, 2-(((S)-1-(5-fluoropyridin-3-yl)ethyl)amino)-N—((S)-2-hydroxypropyl)-6-(trifluoromethyl)thieno[3,2-d]pyrimidine-4-carboxamide]"
50 to 100,50 to 100,74.02,< 10,100 to 500,,,,"Cc1cc2nc(N[C@@H](C)c3cccnc3)nc(C(=O)NCCO)c2s1 [Example Z368, (S)—N-(2-Hydroxyethyl)-6-methyl-2-((1-(pyridin-3-yl)ethyl)amino)thieno[3,2-d]pyrimidine-4-carboxamide]"
,,,10 to 50,10 to 50,100 to 500,> 500,1.19,"Cc1cc2nc(N[C@@H](C)c3cncc(F)c3)nc(C(=O)N3CC(CC(=O)OC(C)(C)C)C3)c2s1 [Example Z580, tert-Butyl (S)-2-(1-(2-((1-(5-Fluoropyridin-3-yl)ethyl)amino)-6-methylthieno[3,2-d]pyrimidine-4-carbonyl)azetidin-3-yl)acetate]"
,,,10 to 50,10 to 50,> 500,> 500,2.03,"CC(C)OC(=O)NC1CN(C(=O)c2nc(N[C@@H](C)c3cncc(F)c3)nc3ccsc23)C1 [Example Z510, Isopropyl (S)-(1-(2-((1-(5-fluoropyridin-3-yl)ethyl)amino)thieno[3,2-d]pyrimidine-4-carbonyl)azetidin-3-yl)carbamate]"
